Literature values, collected in US20040014652A1, “Tumor activated prodrug compounds and methods of making and using the same” (priority 2000, published 2004).

Experiments:
[1] = test system: tumors; conditions: mice
[2] = human, in vivo

TNFα
dose required for tumor regression [1]: approximately 400 μg/kg
half-life [2]: 20 min
